Assay results from US7247440B2, “Method of screening preventives or remedies for obesity” (Takeda Pharmaceutical Company Limited, priority 2001, dated 2007).
Where a SMILES comes first, the peptide text is derived from it.

Target: T1, GPR7 (Homo sapiens, UniProt P48145)
T1 construct: expressed in transfected cells; host or cells: CHO dhfr- cells, plasmid pAKKO-Human GPR7 (high-expression clones 7, 8, 14)
T1 sequence (P48145 1-328): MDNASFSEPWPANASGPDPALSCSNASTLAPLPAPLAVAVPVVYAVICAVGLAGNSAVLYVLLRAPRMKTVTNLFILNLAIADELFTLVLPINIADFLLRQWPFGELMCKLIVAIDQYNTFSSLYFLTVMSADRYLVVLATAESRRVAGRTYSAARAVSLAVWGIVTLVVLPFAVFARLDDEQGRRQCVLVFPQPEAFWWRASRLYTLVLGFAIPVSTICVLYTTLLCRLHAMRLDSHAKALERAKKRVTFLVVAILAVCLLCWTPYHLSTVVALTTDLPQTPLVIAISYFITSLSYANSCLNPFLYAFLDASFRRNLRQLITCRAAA
Assay: GTPγS-binding promoting activity on GPR7-expressed CHO cell membrane fraction
Format: biochemical
Protocol: The [^35S]-guanosine 5′-(γ-thio)triphosphate (GTPγS) binding promoting activity on the GPR7-expressed CHO cell membrane fraction was assayed by the following procedures.
The GPR7-expressed CHO cell membrane fraction prepared by the method described in EXAMPLE 2 was diluted with a membrane dilution buffer (50 mM Tris-hydrochloride buffer (pH 7.4), 5 mM MgCl2, 150 mM NaCl, 1 μM GDP and 0.1% BSA) to prepare a cell membrane fraction solution for assay having a protein level of 30 μg/ml. To 200 μl of the cell membrane fraction solution for assay were added 2 μl of 50 nM [^35S]-guanosine 5′-(γ-thio)triphosphate (NEN Co.) and 2 μl of a sample solution in DMSO, which was adjusted to an appropriate concentration. The resulting mixture was kept warm at 25° C. for an hour. The mixture was filtrated through a filter. After the filter was washed twice with 1.5 ml of a wash buffer (50 mM Tris-hydrochloride buffer (pH 7.4), 5 mM MgCl2, 1 mM EDTA and 0.1% BSA), radioactivity of the filter was measured with a liquid scintillation counter.
Following the procedures described in 1) above, hGPR8L (1-23) or hGPR8L (1-30) were given to the GPR7-expressed CHO cell membrane fraction in various concentrations to assay for the GTPγS-binding promoting activity. […]

Row | Compound | EC50
1 | CSCC[C@H](NC(=O)[C@H](CC(C)C)NC(=O)[C@H](CC(C)C)NC(=O)CNC(=O)[C@H](C)NC(=O)[C@H](C)NC(=O)[C@H](CCCNC(=N)N)NC(=O)CNC(=O)[C@@H](NC(=O)[C@@H](NC(=O)[C@H](Cc1c[nH]cn1)NC(=O)[C@H](Cc1ccc(O)cc1)NC(=O)[C@@H](N)CCCNC(=N)N)[C@@H](C)O)C(C)C)C(=O)NCC(=O)N[C@@H](CC(C)C)C(=O)O [hGPR8L(9–23), Arg-Tyr-His-Thr-Val-Gly-Arg-Ala-Ala-Gly-Leu-Leu-Met-Gly-Leu] (H-RYHTVGRAAGLLMGL-OH; C-terminus assumed) | > 10000 nM
2 | CSCC[C@H](NC(=O)[C@H](CC(C)C)NC(=O)[C@H](CC(C)C)NC(=O)CNC(=O)[C@H](C)NC(=O)[C@H](C)NC(=O)[C@H](CCCNC(=N)N)NC(=O)CNC(=O)[C@@H](NC(=O)[C@@H](NC(=O)[C@H](Cc1c[nH]cn1)NC(=O)[C@H](Cc1ccc(O)cc1)NC(=O)[C@H](CCCNC(=N)N)NC(=O)[C@@H]1CCCN1C(=O)[C@H](CO)NC(=O)[C@H](C)NC(=O)[C@@H](NC(=O)[C@@H](N)Cc1c[nH]cn1)C(C)C)[C@@H](C)O)C(C)C)C(=O)NCC(=O)N[C@@H](CC(C)C)C(=O)O [hGPR8L(4–23)] (H-HVASPRYHTVGRAAGLLMGL-OH; C-terminus assumed) | > 10000 nM
